Experimental data from patent US12385008B2, “Method for producing retinal tissue” (SUMITOMO PHARMA CO., LTD., priority 2015, dated 2025).

Tests used:
[1] = system: human iPS cells (1231A3 strain); assay: Pax6 and Chx10 immunostaining of cell aggregates from human iPS cells (Example 2); type: cell-based; conditions: first step MEK inhibitor ± PKC inhibitor; second step with 30 nM SAG; BMP4 1.5 nM from day 3; 22 days after start of suspension culture; FIG. 3
Method: (§1) iPS cells derived from human peripheral blood derived-mononuclear cells established from ePMBC (registered trade mark) of Cellular Technology Limited (1231A3 strain, Kyoto University) were used. Undifferentiated maintenance culture of these iPS cells under feeder cell-free conditions was performed according to the method described in “Nakagawa, M. et. al., Sci. Rep. 2014 Jan. 8; 4: 3594”. As the medium, “StemFit (registered trade mark)” AK03 medium (Ajinomoto Co., Inc.) was used and iMatrix-511 (Nippi) was used as a culture substrate.
Production of retinal tissue including a step of culturing in a medium containing an MEK inhibitor, a PKC inhibitor or a Sonic hedgehog signal transduction pathway activating substance was performed as follows. Human iPS cells under culture for maintaining an undifferentiated state were treated with 0.5×TrypLE select (mixture of equal amounts of TrypLE select (Life Technologies) and 0.5 mM EDTA/PBS(−)), scraped using a cell scraper, dispersed to single cells by pipetting, seeded in a 6-well culture plate coated with iMatrix-511 (0.5 μg/cm^2) at 1.2×10^4 cells per 1 well, and cultured in a StemFit medium containing Y-27632 (Wako Pure Chemical Industries, Ltd.) (final concentration 10 μM) as a ROCK inhibitor under 37° C., 5% CO2 conditions. […]

[2] = system: human iPS cells (1231A3 strain); assay: Microscopic observation of collapse of cell aggregates from human iPS cells (Example 2); type: cell-based; conditions: 10 days after start of suspension culture, FIG. 2
Method: as §1
Production of retinal tissue including a step of culturing in a medium containing an MEK inhibitor, a PKC inhibitor or a Sonic hedgehog signal transduction pathway activating substance was performed as follows. Human iPS cells under culture for maintaining an undifferentiated state were treated with 0.5×TrypLE select (mixture of equal amounts of TrypLE select (Life Technologies) and 0.5 mM EDTA/PBS(−)), scraped using a cell scraper, dispersed to single cells by pipetting, seeded in a 6-well culture plate coated with iMatrix-511 (0.5 μg/cm^2) at 1.2×10^4 cells per 1 well, and cultured in a StemFit medium containing Y-27632 (Wako Pure Chemical Industries, Ltd.) (final concentration 10 μM) as a ROCK inhibitor under 37° C., 5% CO2 conditions. At 2 days after the seeding, PD0325901 (SIGMA) (final concentration 1 μM) as an MEK inhibitor and Go6983 (SIGMA) (final concentration 2 μM) as a PKC inhibitor were added and the mixture was cultured for 5 days, or at 6 days after seeding, PD0325901 (final concentration 1 μM) was added and the mixture was cultured for […] (completion of step 1). The cells cultured in the medium containing the above-mentioned inhibitors were treated with 0.5×TrypLE select, scraped using a cell scraper, dispersed to single cells by pipetting, seeded in a 96-well culture plate (PrimeSurface 96 V-BOTTOM plate, SUMITOMO BAKELITE CO., LTD.) at 1.0×10^4 cells per 1 well, and cultured in 100 μl of a gfCDM+KSR medium [45% IMDM (Life Technologies), 45% F12 (Life Technologies), 10% KSR (Life Technologies), 1% Chemically defined lipid concentrate (Life Technologies), 450 μM 1-Thioglycerol (SIGMA)] supplemented with Y-27632 (final concentration 20 μM) (second step SAG(−)) or seeded in a gfCDM+KSR medium supplemented with SAG (Enzo) (final concentration 30 nM) (second step SAG(+)) and cultured in suspension under 37° C., 5% CO2 conditions. Cell aggregates were formed by 2 days after the start of the suspension culture (completion of step 2). […]

Row | Structure (SMILES) | Pax6, Chx10 (retinal progenitor cell markers) co-positive cells in cell aggregates [1] | collapse of aggregates ([2]; 1-day treatment in first step (1 μM), second step SAG(+) (30 nM SAG)) | collapse of aggregates ([2]; 1-day treatment in first step (1 μM), second step SAG(−)) | collapse of aggregates ([2]; 5-day treatment in first step (PD0325901 1 μM, Go6983 2 μM), irrespective of presence or absence of SAG in second step) | collapse of aggregates ([2]; non-treatment in first step, second step SAG(+) (30 nM SAG))
1 | O=C(NOC[C@H](O)CO)c1ccc(F)c(F)c1Nc1ccc(I)cc1F [PD0325901] | Pax6, Chx10 co-positive cells were confirmed | collapse of aggregates was hardly observed | collapse of aggregates was observed | Collapse of aggregates was not observed | –
2 | CNC1CCC(N(Cc2cccc(-c3ccncc3)c2)C(=O)c2sc3ccccc3c2Cl)CC1 (centres unmarked) [SAG, N-methyl-N′-(3-pyridinylbenzyl)-N′-(3-chlorobenzo[b]thiophene-2-carbonyl)-1,4-diaminocyclohexane] | – | – | – | – | collapse of aggregates was hardly observed
